One assay deals with FGFR-4 (Homo sapiens, UniProt P22455). Description: Enzymatic kinase assay. It counts as biochemical. How it is done: (§1) Two methods were used to analyze phosphorylated peptides and proteins produced by the listed tyrosine and serine/threonine-specific protein kinases: either using a filter-binding assay (FB), or using a flashplate assay (FP). The activities of protein kinases were assayed in the presence or absence of inhibitors, by measuring the incorporation of ^33P from [γ^33P]ATP into appropriate substrates.
(§2) 96-well polypropylene microplates were used to assay the activity in the FB mode. To determine the inhibitory activity of compounds 10 μL of compound dilutions were pipetted into 96-well plates followed by the addition of 10 μL of assay mix and 10 μL of individual enzymes. With the addition of the enzymes the reactions were initiated and continued at RT. […] The final concentration of DMSO in the enzyme assays was 1%.
(§3) Flashplates are available as 96-well standard (STFPs) or as streptavidin-(SAFPs) or nickel coated FPs (NiFPs) from Perkin Elmer. STFPs are 96-well polystyrene microplates in which the interior of each well is permanently coated with a thin layer of polystyrene-based scintillant. Streptavidin flashplates (SAFP) are 96 or 384-well STFPs coated with streptavidin. SAFPs are suitable for a wide variety of assay applications which utilize biotinylated capture molecules. NiFP or nickel chelate flashplates are 96- or 384-well STFPs coated with nickel chelate. NiFPs are designed for in-plate, radiometric assays which utilize 4- or 6-histidine tagged proteins and peptides.
(§4) All kinase assays were performed in STFPs for 60 mins at RT and stopped with 50 μL of 0.5% H3PO4 except PKA which were carried out in polypropylene 96- and 384-well plates, respectively. […] All wells were then washed three times with 200 μL of 0.5% H3PO4 and the plates were dried at room temperature. The plates were sealed and counted in a microplate scintillation counter (TopCount NXT, TopCount NXT HTS). The final concentration of DMSO in the enzyme assays was 1%.

The target in a further assay is cKIT (Homo sapiens, UniProt P10721). Description: Enzymatic kinase assay. It counts as biochemical. The protocol:
as §1, §2, §3, §4

The target in another assay is KDR (Homo sapiens, UniProt P35968). The assay can be described thus: Enzymatic kinase assay. It counts as biochemical. The protocol:
as §1, §2, §3, §4

The target of another assay is P38a (Homo sapiens, UniProt Q16539). Description: Enzymatic kinase assay. The class given is biochemical. How it is done: as §1, §2, §3, §4
Another assay has as its target COT1 (Homo sapiens, UniProt P41279). The assay can be described thus: Enzymatic kinase assay. It counts as biochemical. The protocol: as §1, §2, §3, §4
In the next assay the target is HER2 (Homo sapiens, UniProt P04626). Description: Enzymatic kinase assay. It counts as biochemical. How it is done: as §1, §2, §3, §4
A further assay deals with ERK2 (Homo sapiens, UniProt P28482). Description: Enzymatic kinase assay. It counts as biochemical. How it is done:
as §1, §2, §3, §4

For another assay, the target named is GSK3beta (Homo sapiens, UniProt P49841). The assay can be described thus: Enzymatic kinase assay. The class given is biochemical. The protocol: as §1, §2, §3, §4
A further assay addresses TYK2 (Homo sapiens, UniProt P29597). Description: Enzymatic kinase assay. It counts as biochemical. The protocol: as §1, §2, §3, §4
For a further assay, the target named is CDK2A (Homo sapiens, UniProt P24941). The assay can be described thus: Enzymatic kinase assay. It counts as biochemical. The protocol: as §1, §2, §3, §4
Another assay deals with cMET (Homo sapiens, UniProt P08581). Description: Enzymatic kinase assay. The class given is biochemical. How it is done:
as §1, §2, §3, §4

Another assay concerns the target EphA4 (Homo sapiens, UniProt P54764). Description: Enzymatic kinase assay. It counts as biochemical. The protocol: as §1, §2, §3, §4
For a further assay, the target named is LCK (Homo sapiens, UniProt P06239). The assay can be described thus: Enzymatic kinase assay. The class given is biochemical. How it is done: as §1, §2, §3, §4
Another assay deals with cABLT315 (Homo sapiens, UniProt P00519, T315I). The assay can be described thus: Enzymatic kinase assay. It counts as biochemical. How it is done: as §1, §2, §3, §4
Another assay addresses T1, Aurora A (Homo sapiens, UniProt O14965).
T1 sequence (O14965 1-403): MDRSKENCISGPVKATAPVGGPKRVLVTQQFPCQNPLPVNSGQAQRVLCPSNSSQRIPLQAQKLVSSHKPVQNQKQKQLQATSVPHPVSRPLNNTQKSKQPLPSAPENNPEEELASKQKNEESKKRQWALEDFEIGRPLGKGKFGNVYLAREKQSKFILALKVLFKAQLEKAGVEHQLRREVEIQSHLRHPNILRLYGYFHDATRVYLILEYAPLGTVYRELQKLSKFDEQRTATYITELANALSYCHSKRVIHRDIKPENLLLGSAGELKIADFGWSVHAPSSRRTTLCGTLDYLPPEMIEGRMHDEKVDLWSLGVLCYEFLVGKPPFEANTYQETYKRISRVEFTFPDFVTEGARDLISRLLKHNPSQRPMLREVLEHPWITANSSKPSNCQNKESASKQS
The assay can be described thus: Enzymatic kinase assay. The class given is biochemical. How it is done: as §1, §2, §3, §4

Another assay addresses MK2 (Homo sapiens, UniProt P49137). Description: Enzymatic kinase assay. It counts as biochemical. How it is done:
as §1, §2, §3, §4

The next assay addresses JAK2 (Homo sapiens, UniProt O60674). Description: Enzymatic kinase assay. It counts as biochemical. How it is done: as §1, §2, §3, §4
The target in another assay is PDGFRa (Homo sapiens, UniProt P16234). The assay can be described thus: Enzymatic kinase assay. It counts as biochemical. The protocol:
as §1, §2, §3, §4

Another assay has as its target RET (Homo sapiens, UniProt P07949). The assay can be described thus: Enzymatic kinase assay. As to conditions: enzymatic; read-out: RET IC50 values (converted). It counts as biochemical. The protocol: as §1, §2, §3, §4
Another assay has as its target InsR (Homo sapiens, UniProt P06213). Description: Enzymatic kinase assay (filter-binding/flashplate). It counts as biochemical. The settings on record: enzymatic; read-out: InsR IC50 values. How it is done:
as §1, §2, §3, §4

Assay [1] addresses T2, IGF1R (Homo sapiens, UniProt P08069). The assay can be described thus: Enzymatic kinase assay (filter-binding/flashplate). The class given is biochemical. How it is done: as §1, §2, §3, §4
For assay [2], the target named is T2, IGF1R. Description: Cellular IGF-1R assay: inhibition of IGF1R phosphorylation in Hek293 cells, capture ELISA (MSD). It counts as cell-based. Also on record: expressed in transfected cells; host or cells: Hek293 (Hek293-IGF1R). The settings on record: IGF-triggered receptor phosphorylation. How it is done: IVa. Cellular IGF-1R and InsR Assays
Compound-mediated inhibition of IGF1R and INSR phosphorylation in Hek293 cells transduced with the corresponding receptors is assessed in a capture ELISA format using the MSD (Meso Scale Discovery) platform. Briefly, 30′000 cells washed and diluted in starvation medium (DMEM high glucose supplemented with 0.1% BSA) are seeded in 90 μL per well into 96-well plates pre-coated with poly-D-lysine (0.1 mg/mL in PBS/O). After 24 h incubation at 37° C. and 5% CO2, dose-response effects are determined with 3-fold serial compound dilutions, starting at 10 μM. The final vehicle concentration is 0.1% DMSO in all wells. Following pre-incubation with compounds for 1 h, receptor phosphorylation is triggered by a 10 min exposure to 1.0 ng/μL IGF for Hek293-IGF1R cells, and 5.0 ng/μL insulin for Hek293-InsR cells. Cell lysis is achieved by addition of 80 μL MSD lysis buffer per aspirated well, incubation on ice for 20 min, and a freeze-thaw cycle. Target phosphorylation is then assessed by transferring volumes corresponding to approx. 6 μg Hek293-IGF1R or 0.6 μg Hek293-InsR lysates to MSD assay plates pre-coated with total-IGF1R or total-InsR Abs, respectively. […] Immune complexes are detected by a SULFO-Tag™-coupled anti-rabbit IgG antibody in the presence of 150 μL MSD read-buffer. Light emission at 620 nm triggered by application of electric current is recorded on a MSD Sectorlmager 6000. Acquired raw data (mean Ru-ECL units) are processed in an Excel analysis template. The plate blank (MSD lysis buffer) is subtracted from all data points. The effect of a particular test compound concentration on receptor phosphorylation is expressed relative to the window defined by ligand-stimulated vs unstimulated control cells (set as 100%). IC50 values [nM] are determined using 4-parametric curve-fitting (XLfit software, V4.3.2).

The next assay deals with hERG channels (Homo sapiens, UniProt Q12809). Description: biochemical.

Some results are limits rather than exact numbers.

Sequence of LCK (P06239 whole entry, species assumed): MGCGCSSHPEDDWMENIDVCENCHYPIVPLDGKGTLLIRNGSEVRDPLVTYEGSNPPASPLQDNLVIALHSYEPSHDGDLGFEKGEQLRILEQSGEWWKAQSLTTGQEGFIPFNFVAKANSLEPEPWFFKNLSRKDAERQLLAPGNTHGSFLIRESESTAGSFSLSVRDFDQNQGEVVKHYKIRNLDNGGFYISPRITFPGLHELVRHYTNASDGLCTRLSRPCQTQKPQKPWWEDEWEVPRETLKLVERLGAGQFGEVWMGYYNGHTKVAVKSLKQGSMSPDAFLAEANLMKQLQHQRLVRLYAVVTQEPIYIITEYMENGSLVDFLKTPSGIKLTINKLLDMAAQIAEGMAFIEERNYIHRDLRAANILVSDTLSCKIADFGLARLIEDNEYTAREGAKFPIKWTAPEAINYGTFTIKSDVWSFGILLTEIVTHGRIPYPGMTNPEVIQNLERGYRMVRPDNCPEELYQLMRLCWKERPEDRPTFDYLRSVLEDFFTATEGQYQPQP
Sequence of RET (P07949 29-1114, species assumed): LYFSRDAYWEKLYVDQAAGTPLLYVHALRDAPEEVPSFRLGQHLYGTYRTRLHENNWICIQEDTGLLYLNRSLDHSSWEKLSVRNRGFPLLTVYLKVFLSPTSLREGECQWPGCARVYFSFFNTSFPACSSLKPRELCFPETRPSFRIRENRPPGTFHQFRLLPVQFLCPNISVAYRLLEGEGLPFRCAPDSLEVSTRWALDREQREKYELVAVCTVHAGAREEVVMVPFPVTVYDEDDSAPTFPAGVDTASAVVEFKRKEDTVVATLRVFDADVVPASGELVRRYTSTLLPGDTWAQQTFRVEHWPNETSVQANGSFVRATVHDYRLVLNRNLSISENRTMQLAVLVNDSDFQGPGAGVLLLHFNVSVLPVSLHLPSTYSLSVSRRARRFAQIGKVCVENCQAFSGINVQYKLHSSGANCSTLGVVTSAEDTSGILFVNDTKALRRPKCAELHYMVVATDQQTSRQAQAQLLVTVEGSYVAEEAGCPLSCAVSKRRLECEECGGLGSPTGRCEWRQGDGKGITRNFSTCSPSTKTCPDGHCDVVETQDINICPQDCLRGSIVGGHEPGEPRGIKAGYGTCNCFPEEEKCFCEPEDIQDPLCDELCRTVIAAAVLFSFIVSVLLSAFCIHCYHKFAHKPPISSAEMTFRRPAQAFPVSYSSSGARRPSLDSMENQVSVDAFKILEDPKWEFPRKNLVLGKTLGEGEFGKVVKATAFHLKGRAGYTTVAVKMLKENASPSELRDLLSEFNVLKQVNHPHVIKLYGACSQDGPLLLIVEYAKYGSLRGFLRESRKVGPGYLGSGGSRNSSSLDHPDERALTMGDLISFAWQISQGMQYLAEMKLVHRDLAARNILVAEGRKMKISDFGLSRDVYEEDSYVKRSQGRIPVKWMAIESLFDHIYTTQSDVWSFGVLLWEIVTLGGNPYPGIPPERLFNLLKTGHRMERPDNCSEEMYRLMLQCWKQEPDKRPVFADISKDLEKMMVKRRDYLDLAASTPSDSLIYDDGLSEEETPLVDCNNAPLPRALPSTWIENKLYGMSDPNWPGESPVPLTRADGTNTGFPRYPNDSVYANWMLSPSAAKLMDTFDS
Sequence of TYK2 (P29597 whole entry, species assumed): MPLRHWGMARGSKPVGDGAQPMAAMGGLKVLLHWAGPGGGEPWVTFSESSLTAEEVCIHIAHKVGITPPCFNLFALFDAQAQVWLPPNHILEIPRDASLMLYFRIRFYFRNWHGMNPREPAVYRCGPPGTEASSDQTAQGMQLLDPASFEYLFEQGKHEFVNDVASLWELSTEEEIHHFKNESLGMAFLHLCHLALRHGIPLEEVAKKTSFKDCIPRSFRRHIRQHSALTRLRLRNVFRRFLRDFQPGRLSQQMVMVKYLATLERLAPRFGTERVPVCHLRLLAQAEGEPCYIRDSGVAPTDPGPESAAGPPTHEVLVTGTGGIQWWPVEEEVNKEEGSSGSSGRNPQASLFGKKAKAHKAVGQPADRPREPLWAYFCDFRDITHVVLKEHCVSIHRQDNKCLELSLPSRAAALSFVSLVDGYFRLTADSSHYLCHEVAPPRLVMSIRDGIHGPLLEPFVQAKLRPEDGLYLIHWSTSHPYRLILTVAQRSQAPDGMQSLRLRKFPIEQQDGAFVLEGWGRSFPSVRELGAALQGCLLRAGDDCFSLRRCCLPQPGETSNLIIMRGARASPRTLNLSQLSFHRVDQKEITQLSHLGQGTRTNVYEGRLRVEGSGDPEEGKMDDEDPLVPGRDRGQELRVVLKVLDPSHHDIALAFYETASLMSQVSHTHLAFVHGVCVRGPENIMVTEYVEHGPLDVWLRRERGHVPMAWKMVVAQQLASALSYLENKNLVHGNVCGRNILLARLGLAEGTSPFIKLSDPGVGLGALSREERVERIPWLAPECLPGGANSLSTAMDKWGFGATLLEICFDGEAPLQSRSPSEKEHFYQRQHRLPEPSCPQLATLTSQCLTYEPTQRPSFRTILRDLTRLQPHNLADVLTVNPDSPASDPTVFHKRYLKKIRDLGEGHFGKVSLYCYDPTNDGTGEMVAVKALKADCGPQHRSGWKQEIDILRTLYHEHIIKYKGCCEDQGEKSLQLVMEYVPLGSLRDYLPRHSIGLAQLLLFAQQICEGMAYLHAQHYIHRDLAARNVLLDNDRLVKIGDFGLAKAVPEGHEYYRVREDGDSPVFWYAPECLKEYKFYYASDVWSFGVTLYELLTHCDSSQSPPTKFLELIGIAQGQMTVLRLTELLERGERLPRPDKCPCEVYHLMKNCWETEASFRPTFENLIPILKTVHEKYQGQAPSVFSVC
Sequence of KDR (P35968 20-1356, species assumed): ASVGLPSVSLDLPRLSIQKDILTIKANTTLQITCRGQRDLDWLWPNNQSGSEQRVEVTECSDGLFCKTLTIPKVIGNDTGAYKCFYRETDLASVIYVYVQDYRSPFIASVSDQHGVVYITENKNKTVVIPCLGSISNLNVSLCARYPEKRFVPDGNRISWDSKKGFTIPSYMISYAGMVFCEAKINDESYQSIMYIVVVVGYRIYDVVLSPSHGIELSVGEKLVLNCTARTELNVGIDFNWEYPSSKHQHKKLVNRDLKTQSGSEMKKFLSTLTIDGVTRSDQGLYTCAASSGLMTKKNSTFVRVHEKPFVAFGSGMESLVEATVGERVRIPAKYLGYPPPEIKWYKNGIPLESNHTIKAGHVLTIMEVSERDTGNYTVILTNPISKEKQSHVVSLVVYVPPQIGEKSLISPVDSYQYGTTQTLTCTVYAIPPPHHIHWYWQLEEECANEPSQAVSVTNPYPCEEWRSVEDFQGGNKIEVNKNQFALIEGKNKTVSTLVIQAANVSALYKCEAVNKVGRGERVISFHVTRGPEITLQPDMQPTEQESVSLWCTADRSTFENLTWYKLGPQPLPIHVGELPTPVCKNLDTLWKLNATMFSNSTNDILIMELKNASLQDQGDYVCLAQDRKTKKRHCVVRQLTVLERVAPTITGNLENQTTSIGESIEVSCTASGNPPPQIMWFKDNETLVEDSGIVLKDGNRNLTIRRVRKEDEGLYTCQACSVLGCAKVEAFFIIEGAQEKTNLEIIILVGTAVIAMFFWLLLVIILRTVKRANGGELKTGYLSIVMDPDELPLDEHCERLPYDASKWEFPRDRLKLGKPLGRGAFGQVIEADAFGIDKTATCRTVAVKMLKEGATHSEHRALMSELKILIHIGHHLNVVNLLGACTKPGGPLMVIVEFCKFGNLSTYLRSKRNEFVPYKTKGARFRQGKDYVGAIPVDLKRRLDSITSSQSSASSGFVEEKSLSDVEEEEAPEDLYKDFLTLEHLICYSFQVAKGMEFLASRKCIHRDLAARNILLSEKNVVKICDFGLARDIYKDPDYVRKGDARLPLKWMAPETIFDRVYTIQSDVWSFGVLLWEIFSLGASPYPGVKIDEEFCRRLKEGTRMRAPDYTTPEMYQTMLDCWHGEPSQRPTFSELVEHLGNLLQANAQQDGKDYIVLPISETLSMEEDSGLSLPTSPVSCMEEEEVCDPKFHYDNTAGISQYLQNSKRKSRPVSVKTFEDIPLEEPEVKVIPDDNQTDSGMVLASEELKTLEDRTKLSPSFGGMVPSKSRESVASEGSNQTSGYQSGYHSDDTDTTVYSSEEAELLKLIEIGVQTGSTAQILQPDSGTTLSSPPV
Sequence of MK2 (P49137 whole entry, species assumed): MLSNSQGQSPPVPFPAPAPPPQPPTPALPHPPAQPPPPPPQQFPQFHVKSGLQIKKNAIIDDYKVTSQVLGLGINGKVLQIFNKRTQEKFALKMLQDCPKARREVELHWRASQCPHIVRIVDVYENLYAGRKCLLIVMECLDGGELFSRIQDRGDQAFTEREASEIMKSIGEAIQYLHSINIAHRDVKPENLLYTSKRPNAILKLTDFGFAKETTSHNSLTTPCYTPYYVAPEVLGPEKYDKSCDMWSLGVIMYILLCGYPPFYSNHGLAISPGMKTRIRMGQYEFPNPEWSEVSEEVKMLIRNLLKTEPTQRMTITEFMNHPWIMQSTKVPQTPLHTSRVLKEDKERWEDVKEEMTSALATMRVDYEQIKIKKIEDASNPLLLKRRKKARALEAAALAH
Sequence of P38a (Q16539 whole entry): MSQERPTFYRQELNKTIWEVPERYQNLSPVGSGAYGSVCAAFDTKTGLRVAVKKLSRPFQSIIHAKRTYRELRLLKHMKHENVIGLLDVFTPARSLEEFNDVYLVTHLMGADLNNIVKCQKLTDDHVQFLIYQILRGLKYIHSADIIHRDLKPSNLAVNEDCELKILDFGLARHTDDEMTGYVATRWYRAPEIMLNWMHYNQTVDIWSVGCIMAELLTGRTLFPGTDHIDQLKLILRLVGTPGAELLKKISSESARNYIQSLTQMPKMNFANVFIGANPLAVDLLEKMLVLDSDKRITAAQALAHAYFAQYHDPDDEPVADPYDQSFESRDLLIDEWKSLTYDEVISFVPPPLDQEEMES

`Nc1ncnc2c1c(-c1cccc(OCC3CCCO3)c1F)cn2[C@H]1C[C@@H](CN2CCS(=O)(=O)CC2)C1` (mixture of isomers) [Example 1, 7-[3-(1,1-Dioxo-1-thiomorpholin-4-ylmethyl)-cyclobutyl]-5-[2-fluoro-3-(tetrahydro-furan-2-ylmethoxy)-phenyl]-7H-pyrrolo[2,3-d]pyrimidin-4-ylamine]: the 50% inhibitory concentration (IC50) is above 10 µM against FGFR-4; above 10 µM against cKIT; 2.4 µM against KDR; above 10 µM on P38a; above 10 µM against COT1; above 10 µM at HER2. Also, the IC50 against ERK2, on GSK3beta, against TYK2, against CDK2A, on cMET and at EphA4 was above 10 µM each time. Besides, the IC50 against LCK is above 10 µM; on cABLT315, above 10 µM; at Aurora A, 7 µM; on MK2, above 10 µM; against JAK2, above 10 µM; against PDGFRa, 6.3 µM. Further, the IC50 is 2 µM at RET, 0.038 µM on InsR, 0.0042 µM at IGF1R [1] and 0.005 µM against IGF1R [2].

On to `Nc1ncnc2c1c(-c1cc(OCC34CCC(CC3)O4)ccc1F)cn2[C@H]1C[C@@H](N2CC[S+]([O-])CC2)C1` (relative stereo) [Example 34, 5-[2-Fluoro-5-(7-oxa-bicyclo[2.2.1]hept-1-ylmethoxy)-phenyl]-7-[cis-3-(1-oxo-thiomorpholin-4-yl)-cyclobutyl]-7H-pyrrolo[2,3-d]pyrimidin-4-ylamine], for which the IC50 against FGFR-4, against cKIT, against KDR, on P38a, at COT1 and against HER2 was above 10 µM throughout. For the same compound, the IC50 against ERK2, on GSK3beta, against TYK2, against CDK2A, against cMET and against EphA4 was above 10 µM throughout. The IC50 at LCK, on cABLT315, against Aurora A, at MK2, against JAK2 and at PDGFRa was above 10 µM each time. Besides, the IC50 was above 10 µM at RET, 0.075 µM at InsR and 0.0084 µM at IGF1R [1].

`[2H]C1([2H])C([2H])([2H])C2(COc3ccc(F)c(-c4cn([C@H]5C[C@@H](N6CCN(C(C)=O)CC6)C5)c5ncnc(N)c45)c3)OC1([2H])C([2H])([2H])C2([2H])[2H]` [Example 10, d9-1-[4-(cis-3-{4-Amino-5-[2-fluoro-5-(7-oxa-bicyclo[2.2.1]hept-1-ylmethoxy)-phenyl]-pyrrolo[2,3-d]pyrimidin-7-yl}-cyclobutyl)-piperazin-1-yl]-ethanone]: the IC50 against FGFR-4, against cKIT, against KDR, against P38a, against COT1 and against HER2 was above 10 µM in each case. The half-maximal inhibitory concentration (IC50) against ERK2, on GSK3beta, against TYK2, against CDK2A, against cMET and against EphA4 was above 10 µM each time. Further, the 50% inhibitory concentration (IC50) was 6.6 µM at LCK; above 10 µM against cABLT315; above 10 µM at Aurora A; above 10 µM against MK2; above 10 µM against JAK2; above 10 µM against PDGFRa. Besides, the IC50 at RET is 6.4 µM; on InsR, 0.081 µM; against hERG channels it was 6.8 µM.

Regarding `C[C@]1(O)C[C@@H](c2nc(-c3ccc4ccc(-c5ccccc5)nc4c3)c3c(N)nccn32)C1` [Linsitinib, reference compound], the IC50 at FGFR-4 was above 10 µM; on cKIT, above 10 µM; against COT1, above 10 µM; at EphA4, above 10 µM; against PDGFRa it was above 10 µM; at hERG channels, 2.65 µM.

(Values after patent publication US20130338152A1, “FLUOROPHENYL BICYCLIC HETEROARYL COMPOUNDS” (IRM LLC, priority 2011, published 2013).)
